Key:
TORC2 [1] = assay: TORC2 phosphorylation in primary rat hepatocytes (Western blot); type: cell-based; details: primary hepatocytes; AICAR 1 mM, in the presence of FSK, 30 minutes
Text: FIG. 18B illustrates the effect of CHX on levels of phospho (Ser171) TORC2 in primary rat hepatocytes treated with glucagon over a variety of time points, shown in hours. Western blot assay indicates the levels of TORC2, phospho (Ser171) TORC2 and CREB.
Specifically, FIG. 19A, top, presents a Western blot showing the effect of US and SIK1 RNAi adenoviruses on the levels of SIK1 protein in rat hepatocytes. FIG. 19A, bottom, presents a Western blot assay with nondiscriminating TORC2 antiserum, showing the effect of SIK1 RNAi adenovirus on TORC2 dephosphorylation (compare P-TORC2 and TORC2 bands) following exposure of primary rat hepatocytes to glucagon (Gluc). The arrow identifies phosphorylated TORC2.
Cells were exposed to AICAR and FSK for 30 minutes. Lower mobility bands (arrow) indicate phosphorylated TORC2 polypeptides.
Rat primary hepatocytes were prepared from 200-300g of Sprague-Dawley rats by collagenase perfusion method as described previously (see Koo et al., 2004). 1×10^6 cells were plated in 6 well plates with medium 199 (Invitrogen, Carlsbad, Calif.) supplemented by 10% FBS, 10 units/ml penicillin, 10 μg/ml streptomycin, and 10 nM dexamethasone for 3-6 hours. After attachment, cells were infected with adenoviruses for 16 hours. Subsequently, cells were maintained in medium 199 without FBS and dexamethasone for 24 hours (for cDNA expression adenoviruses) or 48 hours (for RNAi adenoviruses) and […] forskolin or 100 nM glucagon for 2 hours unless noted otherwise. For experiments with cycloheximide, 10 μg/ml cycloheximide was added 30 minutes prior to the addition of 100 nM glucagon.
Like other signaling pathways, cAMP stimulates gluconeogenic gene expression with burst-attenuation kinetics (see Sasaki et al., 1984). Following exposure of primary hepatocytes to Forskolin, PEPCK mRNA levels became maximal after 2 hours, returning to near baseline after 4 hours (see FIG. 18A). […] Consistent with this, CHX pre-treatment potentiated gluconeogenic gene expression in primary rat hepatocytes exposed to glucagon 2-3 fold (see FIG. 18C). […]

TORC2 [2] = assay: Cellular localization of TORC2 in primary rat hepatocytes; type: cell-based; details: wild-type or Ser171Ala TORC2
Description: FIG. 20C illustrate the effect of AICAR and SIK1 on cellular localization of wild-type or Ser171 Ala TORC2 in primary rat hepatocytes. Cells were infected with adenoviruses for HA-tagged wild-type or mutant TORC2 and SIK1 as indicated. Infected cells were exposed to FSK and AICAR for 30 minutes. TORC2 localization was examined with anti-HA antiserum. Cells were counterstained with DAP1 to visualize nuclei.
Based on its ability to promote Ser171 phosphorylation, AMPK might be expected to inhibit nuclear entry of TORC2 in cells exposed to FSK. […] Confirming the pivotal role of Ser171 in this regard, mutant Ser171Ala TORC2 remained constitutively nuclear under both conditions.

[3] = test system: gluconeogenic genes (PEPCK, PGC-1α, G6Pase); assay: Q-PCR of gluconeogenic gene expression in primary rat hepatocytes; type: cell-based; details: primary hepatocytes
Description: Specifically, FIG. 17A illustrates the effect of TORC2 on induction of gluconeogenic genes (PEPCK, PGC-1α, G6Pase) by FSK (10 μM, 2 hr) in cultured primary rat hepatocytes infected with TORC2 or control GFP adenovinus as indicated.
FIGS. 18A-18H illustrate that the induction of the AMP kinase family member SIK1 by CREB during fasting attenuates the gluconeogenic program. Specifically, FIG. 18A illustrates the time course of PEPCK gene expression in primary rat hepatocytes following exposure to FSK. mRNA levels were determined by Q-PCR analysis.
FIG. 18C illustrates the effect of CHX pretreatment on induction of gluconeogenic genes (PEPCK, PGC-1α, G6Pase) by glucagon in primary rat hepatocytes. Relative mRNA levels are shown.
FIG. 19B summarizes the effect of SIK1 RNAi on gluconeogenic gene expression in primary rat hepatocytes, presenting Q-PCR analysis showing the relative induction of PEPCK, PGC-1α, and G6Pase mRNAs by glucagon in cells infected with control (US) or SIK1 RNAi expressing adenoviruses.
FIG. 20D summarizes the effect of AlCAR on expression of gluconeogenic genes (PEPCK, PGC-1α) in primary rat hepatocytes. Cells infected with mutant Ser171Ala TORC2 (171) adenovinus indicated. Treatment with AICAR and FSK is shown.
Rat primary hepatocytes were prepared from 200-300g of Sprague-Dawley rats by collagenase perfusion method as described previously (see Koo et al., 2004). […]

AMPK = details: cited from earlier work

## NC(=O)c1ncn([C@@H]2O[C@H](CO)[C@@H](O)[C@H]2O)c1N [AICAR, 5-aminoimidazole-4-carboxamide riboside]
TORC2 [1]
  phosphorylation of endogenous TORC2: triggered robust phosphorylation of endogenous TORC2
TORC2 [2]
  effect on nuclear entry of TORC2 in cells exposed to FSK: inhibited nuclear entry of wild-type, but not SerAla171 TORC2
[3]
  effect on induction of PEPCK and PGC-1α genes in response to FSK: blocked induction of PEPCK and PGC-1α genes

## CN(C)C(=N)N=C(N)N [metformin]
AMPK
  effect on AMPK: activates AMPK
